According to ChEMBL document CHEMBL3046756, “Synthesis, anti-inflammatory, and structure antioxidant activity relationship of novel 4-quinazoline” (Med Chem Res, 2013):
Activity calls are given as the source filed them. The rule behind the calls is not given here.

How the values were obtained:
Rattus norvegicus [1] = test: Effect on gamma-glutamyl transferase level in Wistar Rattus norvegicus (rat) serum at 100 mg/kg, po qd after 10 days (reference value: 0.57 +/- 0.04 U/I); format: functional
Rattus norvegicus [2] = test: Effect on SGOT level in Wistar Rattus norvegicus (rat) at 100 mg/kg, po qd after 10 days (reference value: 145.50 +/- 13.86 U/I); format: functional
Rattus norvegicus [3] = test: Antipyretic activity in Wistar Rattus norvegicus (rat) assessed as decrease in Brewer's yeast solution-induced hyperthermia at 50 mg/kg, po measured after 1 hr (reference value: 37 +/- 3.55 degC); format: functional
Rattus norvegicus [4] = test: Effect on glutathione peroxidase level in Wistar Rattus norvegicus (rat) liver measured GSH oxidized per min per mg of protein at 100 mg/kg, po after 10 days (reference value: 47.47 +/- 3.86 mmol); format: functional
[5] = test system: Radical scavenging activity; test: Antioxidant activity assessed as DPPH free radical scavenging activity at 6 mg/ml after 5 to 60 min by spectrophotometric analysis; format: functional
Rattus norvegicus [6] = test: Effect on GST level in Wistar Rattus norvegicus (rat) liver measured CDNB conjugated per min per mg of protein at 50 mg/kg, po after 10 days (reference value: 0.86 +/- 0.08 mmol); format: functional
Rattus norvegicus [7] = test: Anti-inflammatory activity in Wistar Rattus norvegicus (rat) assessed as inhibition of carrageenan-induced paw edema at 100 mg/kg, po administered 30 min prior to carrageenan challenge measured at 30 min post carrageenan challenge relative to untreated control; format: functional
Rattus norvegicus [8] = test: Anti-inflammatory activity in Wistar Rattus norvegicus (rat) assessed as inhibition of carrageenan-induced paw edema at 50 mg/kg, po administered 30 min prior to carrageenan challenge measured at 180 min relative to untreated control; format: functional
Rattus norvegicus [9] = test: Anti-inflammatory activity in Wistar Rattus norvegicus (rat) assessed as inhibition of carrageenan-induced paw edema at 150 mg/kg, po administered 30 min prior to carrageenan challenge measured at 90 min relative to untreated control; format: functional
Rattus norvegicus [10] = test: Effect on glutathione reductase level in Wistar Rattus norvegicus (rat) liver measured NADPH oxidized per min per mg of protein at 150 mg/kg, po after 10 days (reference value: 4.19 +/ 0.42 nmol); format: functional
[11] = Toxicity in ip dosed albino Mus musculus (mouse) assessed as mortality measured within 24 hr; format: organism-based; settings: in vivo
Rattus norvegicus [12] = test: Effect on SGPT level in Wistar Rattus norvegicus (rat) at 50 mg/kg, po qd after 10 days (reference value: 38.77 +/- 4.25 U/I); format: functional
Rattus norvegicus [13] = test: Antipyretic activity in Wistar Rattus norvegicus (rat) assessed as decrease in Brewer's yeast solution-induced hyperthermia at 150 mg/kg, po measured after 3 hr (reference value: 36.8 +/- 1.9 degC); format: functional
Rattus norvegicus [14] = test: Effect on TBARS level in Wistar Rattus norvegicus (rat) serum at 150 mg/kg, po qd after 10 days (reference value: 0.82 +/- 0.073 nmol/ml); format: functional
Rattus norvegicus [15] = test: Effect on ALP level in Wistar Rattus norvegicus (rat) serum at 50 mg/kg, po qd after 10 days (reference value: 39.5 +/- 3.86 U/I); format: functional
Rattus norvegicus [16] = test: Effect on glutathione reductase level in Wistar Rattus norvegicus (rat) liver measured NADPH oxidized per min per mg of protein at 100 mg/kg, po after 10 days (reference value: 4.19 +/ 0.42 nmol); format: functional
Rattus norvegicus [17] = test: Antipyretic activity in Wistar Rattus norvegicus (rat) assessed as decrease in Brewer's yeast solution-induced hyperthermia at 100 mg/kg, po measured after 3 hr (reference value: 36.8 +/- 1.9 degC); format: functional
Rattus norvegicus [18] = test: Anti-inflammatory activity in Wistar Rattus norvegicus (rat) assessed as inhibition of carrageenan-induced paw edema at 50 mg/kg, po administered 30 min prior to carrageenan challenge measured at 60 min relative to untreated control; format: functional
Rattus norvegicus [19] = test: Effect on TBARS level in Wistar Rattus norvegicus (rat) serum at 100 mg/kg, po qd after 10 days (reference value: 0.82 +/- 0.073 nmol/ml); format: functional
Rattus norvegicus [20] = test: Anti-inflammatory activity in Wistar Rattus norvegicus (rat) assessed as inhibition of carrageenan-induced paw edema at 100 mg/kg, po administered 30 min prior to carrageenan challenge measured at 120 min relative to untreated control; format: functional
Rattus norvegicus [21] = test: Antipyretic activity in Wistar Rattus norvegicus (rat) assessed as decrease in Brewer's yeast solution-induced hyperthermia at 150 mg/kg, po measured after 1 hr (reference value: 37 +/- 3.55 degC); format: functional
Rattus norvegicus [22] = test: Effect on SGPT level in Wistar Rattus norvegicus (rat) at 150 mg/kg, po qd after 10 days (reference value: 38.77 +/- 4.25 U/I); format: functional
Rattus norvegicus [23] = test: Effect on GSH level in Wistar Rattus norvegicus (rat) liver measured per mg of protein at 150 mg/kg, po after 10 days (reference value: 1.84 +/- 0.092 mg); format: functional
Rattus norvegicus [24] = test: Effect on TBARS level in Wistar Rattus norvegicus (rat) serum at 50 mg/kg, po qd after 10 days (reference value: 0.82 +/- 0.073 nmol/ml); format: functional
Rattus norvegicus [25] = test: Effect on gamma-glutamyl transferase level in Wistar Rattus norvegicus (rat) serum at 150 mg/kg, po qd after 10 days (reference value: 0.57 +/- 0.04 U/I); format: functional
Rattus norvegicus [26] = test: Effect on glutathione peroxidase level in Wistar Rattus norvegicus (rat) liver measured GSH oxidized per min per mg of protein at 150 mg/kg, po after 10 days (reference value: 47.47 +/- 3.86 mmol); format: functional
[27] = Antioxidant activity assessed as Fe2+ chelating activity at 1.5 mg/ml after 60 min by spectrophotometric analysis; format: functional
Rattus norvegicus [28] = test: Effect on ALP level in Wistar Rattus norvegicus (rat) serum at 150 mg/kg, po qd after 10 days (reference value: 39.5 +/- 3.86 U/I); format: functional
Rattus norvegicus [29] = test: Effect on LDH level in Wistar Rattus norvegicus (rat) serum at 150 mg/kg, po qd after 10 days (reference value: 249.89 +/- 13.26 U/I); format: functional
Rattus norvegicus [30] = test: Anti-inflammatory activity in Wistar Rattus norvegicus (rat) assessed as inhibition of carrageenan-induced paw edema at 150 mg/kg, po administered 30 min prior to carrageenan challenge measured at 120 min relative to untreated control; format: functional
Rattus norvegicus [31] = test: Effect on gamma-glutamyl transferase level in Wistar Rattus norvegicus (rat) serum at 50 mg/kg, po qd after 10 days (reference value: 0.57 +/- 0.04 U/I); format: functional
Rattus norvegicus [32] = test: Effect on glutathione peroxidase level in Wistar Rattus norvegicus (rat) liver measured GSH oxidized per min per mg of protein at 50 mg/kg, po after 10 days (reference value: 47.47 +/- 3.86 mmol); format: functional
Rattus norvegicus [33] = test: Effect on ALP level in Wistar Rattus norvegicus (rat) serum at 100 mg/kg, po qd after 10 days (reference value: 39.5 +/- 3.86 U/I); format: functional

Row | SMILES | Activity (Rattus norvegicus [1]) [U/L] | Activity (Rattus norvegicus [2]) [U/L] | T (Rattus norvegicus [3]) [°C] | Activity (Rattus norvegicus [4]) [mmol] | Activity [5] | Activity (Rattus norvegicus [6]) [mmol] | inhibition in vivo at 100 mg/kg (Rattus norvegicus [7]) [%] | inhibition in vivo at 50 mg/kg (Rattus norvegicus [8]) [%] | inhibition in vivo at 150 mg/kg (Rattus norvegicus [9]) [%] | Activity (Rattus norvegicus [10]) [nmol] | LD50 at 24 h [11] [mg/kg] | Activity (Rattus norvegicus [12]) [U/L] | T (Rattus norvegicus [13]) [°C] | Activity (Rattus norvegicus [14]) [nmol/mL] | Activity (Rattus norvegicus [15]) [U/L] | Activity (Rattus norvegicus [16]) [nmol] | T (Rattus norvegicus [17]) [°C] | inhibition in vivo at 50 mg/kg (Rattus norvegicus [18]) [%] | Activity (Rattus norvegicus [19]) [nmol/mL] | inhibition in vivo at 100 mg/kg (Rattus norvegicus [20]) [%] | further results
1 | O=c1c2ccccc2nc2n1NC(c1ccc(O)c(O)c1)C2 (stereo unspecified) | 0.51 | 136.34 | 37.6 | 51.38 | Active | 0.97 | 4.58 | 47 | 44.2 | 5.14 | 495 | 41.97 | 36.6 | 0.8 | 40.77 | 4.25 | 36.8 | 28.1 | 0.83 | 54.7 | T (Rattus norvegicus [21]): 37.5 °C; Activity (Rattus norvegicus [22]): 33.26 U/L; Activity (Rattus norvegicus [23]): 2.39 mg; Activity (Rattus norvegicus [24]): 0.82 nmol/mL; Activity (Rattus norvegicus [25]): 0.5 U/L; Activity (Rattus norvegicus [26]): 53.45 mmol; Activity [27]: 22%; Activity (Rattus norvegicus [28]): 37.58 U/L; Activity (Rattus norvegicus [29]): 238.21 U/L; inhibition in vivo at 150 mg/kg (Rattus norvegicus [30]): 58.2%; Activity (Rattus norvegicus [31]): 0.55 U/L; Activity (Rattus norvegicus [32]): 49.25 mmol; Activity (Rattus norvegicus [33]): 35.64 U/L
2 | COC(=O)c1ccccc1NC(=O)/C=C/c1ccc(O)c(O)c1 | 0.51 | 133.79 | 37.7 | 53.74 | Active | 1.3 | 26.8 | 65.3 | 62.6 | 6.36 | 1140 | 42.47 | 36.5 | 0.7 | 38.3 | 5.59 | 36.8 | 41.6 | 0.75 | 64.3 | T (Rattus norvegicus [21]): 36.9 °C; Activity (Rattus norvegicus [22]): 40.84 U/L; Activity (Rattus norvegicus [23]): 2.95 mg; Activity (Rattus norvegicus [24]): 0.77 nmol/mL; Activity (Rattus norvegicus [25]): 0.49 U/L; Activity (Rattus norvegicus [26]): 57.89 mmol; Activity [27]: 30%; Activity (Rattus norvegicus [28]): 31.17 U/L; Activity (Rattus norvegicus [29]): 232.48 U/L; inhibition in vivo at 150 mg/kg (Rattus norvegicus [30]): 76%; Activity (Rattus norvegicus [31]): 0.53 U/L; Activity (Rattus norvegicus [32]): 49.11 mmol; Activity (Rattus norvegicus [33]): 35.64 U/L
